Source: the Kinase Knowledgebase extract (Sharma et al. 2016)
pIC50: −log10 of the molar value.

Target: ROCK2 (human) (UniProt O75116)
Experiment: Assessment of ROCK2 Kinase Activity

Sequence of ROCK2 (human) (O75116 whole entry, looked up): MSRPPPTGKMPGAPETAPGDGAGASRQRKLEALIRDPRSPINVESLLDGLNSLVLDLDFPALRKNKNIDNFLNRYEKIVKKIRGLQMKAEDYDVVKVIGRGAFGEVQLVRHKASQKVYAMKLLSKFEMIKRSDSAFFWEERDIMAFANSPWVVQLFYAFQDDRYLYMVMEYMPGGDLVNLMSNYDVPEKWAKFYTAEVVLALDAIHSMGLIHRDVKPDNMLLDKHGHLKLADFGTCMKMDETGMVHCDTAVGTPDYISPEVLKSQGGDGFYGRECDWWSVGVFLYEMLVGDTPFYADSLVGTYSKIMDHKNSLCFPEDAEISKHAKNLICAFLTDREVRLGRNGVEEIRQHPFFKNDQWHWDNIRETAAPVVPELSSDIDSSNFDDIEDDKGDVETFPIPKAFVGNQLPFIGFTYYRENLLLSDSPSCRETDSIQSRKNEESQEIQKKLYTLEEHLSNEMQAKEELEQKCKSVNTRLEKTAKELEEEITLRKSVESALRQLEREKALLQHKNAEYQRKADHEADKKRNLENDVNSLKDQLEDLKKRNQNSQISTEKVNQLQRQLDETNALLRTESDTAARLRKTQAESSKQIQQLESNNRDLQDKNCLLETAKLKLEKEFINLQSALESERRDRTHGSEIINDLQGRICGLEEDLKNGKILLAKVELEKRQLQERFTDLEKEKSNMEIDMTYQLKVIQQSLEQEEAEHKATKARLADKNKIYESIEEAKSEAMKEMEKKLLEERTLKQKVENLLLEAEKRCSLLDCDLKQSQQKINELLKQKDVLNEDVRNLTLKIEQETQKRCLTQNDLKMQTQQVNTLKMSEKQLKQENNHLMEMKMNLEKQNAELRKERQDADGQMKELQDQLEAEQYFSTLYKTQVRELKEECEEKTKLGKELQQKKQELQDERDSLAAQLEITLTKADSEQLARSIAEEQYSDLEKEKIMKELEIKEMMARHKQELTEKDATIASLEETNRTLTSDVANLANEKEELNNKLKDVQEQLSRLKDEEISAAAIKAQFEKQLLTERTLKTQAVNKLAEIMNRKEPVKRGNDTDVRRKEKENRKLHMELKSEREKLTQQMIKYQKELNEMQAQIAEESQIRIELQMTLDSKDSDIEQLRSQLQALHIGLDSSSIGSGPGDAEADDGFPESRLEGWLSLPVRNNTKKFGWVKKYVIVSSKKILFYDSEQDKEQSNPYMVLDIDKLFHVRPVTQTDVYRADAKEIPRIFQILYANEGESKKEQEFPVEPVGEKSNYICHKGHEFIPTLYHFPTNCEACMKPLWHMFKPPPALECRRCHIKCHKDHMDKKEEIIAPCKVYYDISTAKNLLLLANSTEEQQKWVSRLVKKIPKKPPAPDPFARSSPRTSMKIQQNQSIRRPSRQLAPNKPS

| SMILES | pIC50 |
| --- | --- |
| NCC1(c2cccc(Cl)c2)CCC(Oc2cc3cc[nH]c(=O)c3cc2Cl)CC1 (stereo unspecified) | ≥ 6.00 |
| COc1ccc(C2(CN)CCC(Oc3cc4cc[nH]c(=O)c4cc3Cl)CC2)cc1OC (stereo unspecified) | ≥ 6.00 |
| NCC1(c2ccccc2)CCC(Oc2cc3cc[nH]c(=O)c3cc2Cl)CC1 (stereo unspecified) | ≥ 6.00 |
| NCC1(c2ccc(Cl)cc2)CCC(Oc2cc3cc[nH]c(=O)c3cc2Cl)CC1 (stereo unspecified) | ≥ 6.00 |
| N[C@]1(C2CC2)CC[C@H](Oc2cc3cc[nH]c(=O)c3cc2Cl)CC1 | ≥ 6.00 |
| NCC1(c2ccc(Cl)c(Cl)c2)CCC(Oc2cc3cc[nH]c(=O)c3cc2Cl)CC1 (stereo unspecified) | ≥ 6.00 |
| COc1ccc(C2(CN)CCC(Oc3cc4cc[nH]c(=O)c4cc3Cl)CC2)cc1 (stereo unspecified) | ≥ 6.00 |
| NCC1(c2ccc(F)cc2)CCC(Oc2cc3cc[nH]c(=O)c3cc2Cl)CC1 (stereo unspecified) | ≥ 6.00 |
| NC1(CC(O)CO)CCC(Oc2cc3cc[nH]c(=O)c3cc2Cl)CC1 (stereo unspecified) | ≥ 6.00 |
| NCC1(c2ccccc2)CCC(Oc2cc3ccncc3cc2Cl)CC1 (stereo unspecified) | ≥ 6.00 |
| C=CCC1(N)CCC(Oc2cc3cc[nH]c(=O)c3cc2Cl)CC1 (stereo unspecified) | ≥ 6.00 |
